Measured values: patent publication US9145352B2, “Quaternary N-(halomethyl) ammonium salts as therapeutic agents” (UNIVERSIDAD DE CALDAS, priority 2012, dated 2015)
Like-named read-outs stand apart in the source and are kept apart here.

Key:
[1] = system: axenic amastigotes of L. (V) panamensis; assay: in vitro effectiveness against axenic amastigotes of L. (V) panamensis; format: cell-based
From the text: Then, a series of compounds analogous to compound 3 (characterized by a tail G being a diarylalkenyl moiety) were synthesized in order to assess their in vitro effectiveness against L. (V) panamensis, a pathogenic species which causes human mucocutaneous leishmaniasis. Other halogenated analogs of choline were also synthesized and included in this in vitro effectiveness study. FIG. 2 illustrates the compounds evaluated for their in vitro effectiveness against axenic amastigotes of L. (V) panamensis.
The table shown in FIG. 7 contains the EC50 values (molar amount of compound that kills 50% of parasites in sample) obtained against axenic amastigotes of L. (V) panamensis. […] N-(HALOMETHYL) AMMONIUM SALTS AS […] AGENTS were compared with the respective non-halogenated (i.e. N,N,N-trimethyl quaternary ammonium salts) and with two compounds commonly used to treat leishmaniasis (meglumine antimoniate and amphotericin B).

[2] = system: amastigotes of L. (V) panamensis that have infected macrophage cells; assay: in vitro effectiveness against L. (V) panamensis amastigotes that have infected macrophage cells; format: cell-based
Procedure: Given that Leishmania parasites are known to infect monocyte cells, mostly macrophages and neutrophils, the in vitro effectiveness of some of the compounds was also tested on L. (V) panamensis in the amastigote stage that have been set to infect macrophage cells. FIG. 5 contains the list of compounds evaluated.
On the other hand, the results of the in vitro activity study of some […] N-(HALOMETHYL) AMMONIUM SALTS AS […] AGENTS shown in FIG. 5 against infected macrophage cells with Leishmania panamesis are shown in FIG. 8.

[3] = system: choline kinase of L. (L) infantum; assay: kinetic studies with choline kinase; format: biochemical; conditions: lowering its catalytic efficiency
From the text: (§1) Phosphatidyl choline can be synthesized by the parasite following the traditional Kennedy pathway (Zhang and Beverley, 2010), in which choline is converted to phosphatidyl choline via a sequence of steps, each catalyzed by a specific enzyme. The first step involves the phosphorylation of choline with the enzyme choline kinase.

[4] = system: promastigotes of L. tarentolae; assay: in vitro uptake of choline by promastigotes; format: cell-based
From the text: as §1

[5] = system: promastigotes of L. tarentolae; assay: in vitro production of phosphatidyl choline by parasites; format: cell-based
From the text: as §1

L. major promastigotes = conditions: cited from earlier work
[6] = system: cutaneous leishmaniasis lesion; assay: golden hamster model for cutaneous leishmaniasis; format: in vivo; conditions: topical application in aqueous buffer (neutral pH) daily for ten days
Procedure: It was decided then to carry out a preliminary in vivo animal study according to standard practices using the golden hamster model for cutaneous leishmaniasis, using the compounds with the better profile as therapeutic agents against leishmaniasis. For that purpose the in vivo effectiveness of compounds 3b, 13b and 14c were tested FIG. 6.
It was decided then to carry out a small in vivo animal study according to standard practices using the golden hamster model for cutaneous leishmaniasis. For that purpose the in vivo effectiveness of compounds 3b, 13b and 14c were tested. Treatment consisted of a topical application of the compound suspended in an aqueous buffer (neutral pH) daily for ten days.

Chagas disease = conditions: given soon after infection at the onset of the acute phase; cited from earlier work
Indian visceral disease = conditions: cited from earlier work

## meglumine antimoniate
[1]
  EC50: 312 ± 18.6 µM
[2]
  EC50 against infected macrophage cells with L. (V) panamensis: 6.33 ± 0.86 µg/mL

## C[N+](C)(CI)CCCCC=C(c1ccccc1)c1ccccc1 [Compound 14a]
[1]; FIG. 7
  relative effectiveness against axenic amastigotes of L. (V) panamensis: the most effective
[3]
  inhibition of choline kinase: able to inhibit this enzyme
[4]
  uptake of choline by promastigotes: interferes with the in vitro uptake of choline
[5]
  production of phosphatidyl choline: inhibits the in vitro production of phosphatidyl choline

## CCCCCCCCCCCC[N+](C)(C)C.[Br-] [dodecyltrimethyl ammonium bromide]
L. major promastigotes
  growth of L. major promastigotes: inhibit the growth

## CCCCCCCCCCCCCCCCCC[N+](C)(C)C.[Br-] [octadecyltrimethyl ammonium bromide]
L. major promastigotes
  growth of L. major promastigotes: inhibit the growth

## C[N+](C)(CCl)CCC=C(c1ccccc1)c1ccccc1 [Compound 13b]
[6]
  cure of animals: cure of the majority of the animals

## O=C(Cn1ccnc1[N+](=O)[O-])NCc1ccccc1 [benznidazole]
Chagas disease
  effective in curing the disease: ~100%

## C[C@@H]1[C@H](O)[C@@H](C)/C=C/C=C/C=C/C=C/C=C/C=C/C=C/[C@H](O[C@@H]2O[C@H](C)[C@@H](O)[C@H](N)[C@@H]2O)C[C@@H]2O[C@](O)(C[C@@H](O)C[C@@H](O)[C@H](O)CC[C@@H](O)C[C@@H](O)CC(=O)O[C@H]1C)C[C@H](O)[C@H]2C(=O)O [amphotericin B]
[1]
  EC50: 0.041 ± 0.001 µM
[2]
  EC50 against infected macrophage cells with L. (V) panamensis: 0.05 ± 0.001 µg/mL
Indian visceral disease; dose of 5-10 mg/kg
  effective against the Indian visceral disease: 90%
Indian visceral disease; total dose of 15 mg/kg body weight
  effective against the Indian visceral disease: 100%
